Patent US9623048B2, “Human hepatocyte-like cells and uses thereof” (SHANGHAI INSTITUTES FOR BIOLOGICAL SCIENCES, CHINESE …, priority 2013, dated 2017)
Read-outs that look alike come from different tables or passages of the source.

Tests used:
hiHep cells [1] = test: CYP metabolism assay in hiHep cells (LC-MS/MS of metabolic products)
Experimental: (§1) For the measurement of CYP enzyme activities, cells were induced with different compounds for certain drug metabolisms. The supernatants were collected for measurement of metabolized compounds by LC-MS/MS (Agilent 1200 HPLC and ABI 4000 mass-spectrometer).
(§2) Freshly thawed primary human hepatocytes were directly used as a positive control. Cells were incubated with substrate in 200 μl incubation medium at different concentrations for 3 hours at 37° C. To stop the reaction, […] cold methanol was added and centrifuged. The supernatants were collected for measurement of metabolized compounds by LC-MS/MS (Agilent 1200 HPLC and ABI 4000 mass-spectrometer). Total cell protein amount was used to normalize the data. Substrates and metabolized products used for standard curves were commercially purchased.
Freshly thawed primary human hepatocytes were directly used as a positive control.

[2] = tested on: CYP450 enzymes in hiHep cells; test: CYP induction assay in hiHep cells (q-PCR); settings: 48 hours inducer treatment
Experimental: Total RNA was extracted to measure the induction of CYP enzymes responding to chemical inducers by q-PCR. Total RNA of cells without inducer treatment were used to measure the expression of CYP450 genes and nuclear receptor genes.
Next, assays were carried out to analyze whether hiHep cells were responsive to CYP inducers.
Transcriptional activation of CYP450 enzymes and many other drug metabolism enzymes are mediated by nuclear receptors including AHR, CAR, and PXR.

hiHep cells [3] = test: Sandwich culture biliary excretion assay in hiHep cells; settings: sandwich cultured hiHep cells, 10 minutes incubation
Experimental: To prepare sandwich culture, 1×10^5 hiHep cells, primary human hepatocytes, and HFF were seeded in collagen I coated 24 well plate. 200 μL 1.5 mg/ml freshly prepared neutralized collagen gel solution were then poured on cells. After solidification, cells were cultured in Williams' E medium supplemented with 5% FBS, 10 μM TCA and 2 μM cAMP for a further 4 days.
To analyze the biliary excretion index, cells were washed once and then incubate in HBSS buffer or Calcium free HBSS buffer at 37° C. […] Cumulative uptake was stopped by washing with cold HBSS buffer for three times. […] The amount of CLF was quantified by measuring fluorescence at 492 nm and 536 nm with a Synergy 4 microplate reader (Biotek, Winooski, USA). Biliary Excretion Index (BEI) was calculated as: BEI=(AHBSS−AHBSS([…]))/AHBSS×100%.
Membrane transporter-mediated biliary excretion is another important function of hepatocytes for clearance of xenobiotics. Drug clearance through biliary excretion is a critically evaluated property in the selection of drug candidates.

hiHep^LT cells = test: CYP metabolism assay in hiHep^LT cells; settings: passage 10
Experimental: as §1, §2

MSC-hiHep cells = test: CYP metabolism assay in AD-MSC-derived hiHep cells
Experimental: as §2

## O=c1ccc2ccccc2o1 [coumarin]
hiHep cells [1]
  CYP enzyme-dependent metabolism: showed CYP enzyme-dependent metabolism

## CCC1(c2ccccc2)C(=O)NC(=O)NC1=O [phenobarbital]
[2]
  induction of CYP3A4 mRNA: relatively low but significant level
  induction of mRNA expression levels of CYP1A2, CYP2A6, CYP2B6, CYP2C8 and CYP2C9: markedly induced

## [D-Pen2,5]-enkephalin hydrate [DPDPE]
hiHep cells [3]
  biliary excretion indices (BEI): remarkable

## Cc1ccc2cc3c(ccc4ccccc43)c3c2c1CC3 [3-methylcholanthrene]
[2]
  induction of mRNA expression levels of CYP1A2, CYP2A6, CYP2B6, CYP2C8 and CYP2C9: markedly induced

## CC(CCC(=O)NC(CCCCNC(=S)Nc1ccc(-c2c3ccc(=O)cc-3oc3cc(O)ccc23)c(C(=O)O)c1)C(=O)O)C1CCC2C3C(O)CC4CC(O)CCC4(C)C3CC(O)C12C (stereo not drawn) [CLF, cholyl-lysyl-fluorescein]
hiHep cells [3]
  biliary excretion indices (BEI): remarkable

## COc1ccc2c(c1)[C@]13CCCC[C@@H]1[C@H](C2)N(C)CC3 [dextromethorphan]
hiHep^LT cells
  products of metabolism: not detected
MSC-hiHep cells
  products of metabolism: not detected
hiHep cells [1]; hiHep cells after 48 hours CYP induction, 3 hours incubation
  CYP enzyme-dependent metabolism: showed CYP enzyme-dependent metabolism
